ChEMBL document CHEMBL2157893, “A potent and orally active antagonist (SM-406/AT-406) of multiple inhibitor of apoptosis proteins (IAPs) in clinical development for cancer treatment” (J Med Chem, 2011)
Calls of active or inactive are those of the source. The rule behind the calls is not given here.

Experiments:
Mus musculus [1] = experiment: Oral bioavailability in mouse at 30 mg/kg; type: ADME, organism-based; conditions: in vivo
Mus musculus [2] = experiment: Half life in mouse at 30 mg/kg, po; type: ADME, organism-based; design: dose 30 mg/kg, route oral; conditions: in vivo
Mus musculus [3] = experiment: AUC (0 to t) in mouse at 10 mg/kg, iv; type: ADME, organism-based, Plasma; design: dose 10 mg/kg, route intravenous; conditions: in vivo
Cynomolgus monkey [4] = experiment: AUC (0 to t) in cynomolgus monkey at 5 mg/kg, po; type: ADME, organism-based, Macaca fascicularis, Plasma; design: dose 5 mg/kg, route oral; conditions: in vivo
Mus musculus [5] = experiment: AUC (0 to t) in mouse at 30 mg/kg, po; type: ADME, organism-based, Plasma; design: dose 30 mg/kg, route oral; conditions: in vivo
Rattus norvegicus [6] = experiment: AUC (0 to t) in Sprague-Dawley rat at 25 mg/kg, po; type: ADME, organism-based, Plasma; design: dose 25 mg/kg, route oral; conditions: in vivo
Canis familiaris [7] = experiment: AUC (0 to t) in beagle dog at 10 mg/kg, po; type: ADME, organism-based, Canis lupus familiaris, Plasma; design: dose 10 mg/kg, route oral; conditions: in vivo
Mus musculus [8] = experiment: Half life in mouse at 10 mg/kg, iv; type: ADME, organism-based; design: dose 10 mg/kg, route intravenous; conditions: in vivo
Canis familiaris [9] = experiment: Half life in beagle dog at 5 mg/kg, iv; type: ADME, organism-based, Canis lupus familiaris; design: dose 5 mg/kg, route intravenous; conditions: in vivo
Canis familiaris [10] = experiment: AUC (0 to t) in beagle dog at 5 mg/kg, iv; type: ADME, organism-based, Canis lupus familiaris, Plasma; design: dose 5 mg/kg, route intravenous; conditions: in vivo
Rattus norvegicus [11] = experiment: Half life in Sprague-Dawley rat at 25 mg/kg, po; type: ADME, organism-based; design: dose 25 mg/kg, route oral; conditions: in vivo
Cynomolgus monkey [12] = experiment: Half life in cynomolgus monkey at 2.5 mg/kg, iv; type: ADME, organism-based, Macaca fascicularis; design: dose 2.5 mg/kg, route intravenous; conditions: in vivo
Rattus norvegicus [13] = experiment: Half life in Sprague-Dawley rat at 5 mg/kg, iv; type: ADME, organism-based; design: dose 5 mg/kg, route intravenous; conditions: in vivo
Canis familiaris [14] = experiment: Oral bioavailability in beagle dog at 10 mg/kg; type: ADME, organism-based, Canis lupus familiaris; conditions: in vivo
Cynomolgus monkey [15] = experiment: AUC (0 to t) in cynomolgus monkey at 2.5 mg/kg, iv; type: ADME, organism-based, Macaca fascicularis, Plasma; design: dose 2.5 mg/kg, route intravenous; conditions: in vivo
Cynomolgus monkey [16] = experiment: Half life in cynomolgus monkey at 5 mg/kg, po; type: ADME, organism-based, Macaca fascicularis; design: dose 5 mg/kg, route oral; conditions: in vivo
Rattus norvegicus [17] = experiment: Oral bioavailability in Sprague-Dawley rat at 25 mg/kg; type: ADME, organism-based; conditions: in vivo
Canis familiaris [18] = experiment: Half life in beagle dog at 10 mg/kg, po; type: ADME, organism-based, Canis lupus familiaris; design: dose 10 mg/kg, route oral; conditions: in vivo
Cynomolgus monkey [19] = experiment: Oral bioavailability in cynomolgus monkey at 5 mg/kg; type: ADME, organism-based, Macaca fascicularis; conditions: in vivo
MDA-MB-231 [20] = experiment: Induction of cell death in human MDA-MB-231 cells incubated for 24 hrs by trypan blue exclusion assay; type: functional, cell-based
Mus musculus [21] = experiment: Induction of PARP cleavage in human MDA-MB-231 cells xenografted in SCID mouse at 100 mg/kg, po administered as single dose measured after 6 hrs by Western blot analysis; type: functional, organism-based; design: dose 100 mg/kg
Mus musculus [22] = experiment: Induction of PARP cleavage in human MDA-MB-231 cells xenografted in SCID mouse at 100 mg/kg, po administered as single dose measured after 16 hrs by Western blot analysis; type: functional, organism-based; design: dose 100 mg/kg
Mus musculus [23] = experiment: Induction of degradation of cIAP1 in human MDA-MB-231 cells xenografted in SCID mouse at 100 mg/kg, po administered as single dose measured after 16 hrs by Western blot analysis; type: functional, organism-based; design: dose 100 mg/kg
MDA-MB-231 [24] = experiment: Induction of apoptosis in human MDA-MB-231 cells assessed as activation of PARP cleavage at 1.5 uM after 12 hrs by Western blot analysis; type: functional, cell-based
MDA-MB-231 [25] = experiment: Antitumor activity against human MDA-MB-231 cells xenografted in SCID mouse assessed inhibition of tumor growth at 10 mg/kg, po administered daily for 5 days/week for 2 weeks; type: functional, organism-based; design: dose 10 mg/kg
MDA-MB-231 [26] = experiment: Induction of cell death in human MDA-MB-231 cells at 1 uM by trypan blue exclusion assay; type: functional, cell-based; conditions: TDE = time-dependent effect
MDA-MB-231 [27] = experiment: Induction of apoptosis in human MDA-MB-231 cells assessed as activation of caspase-3 activity at 1.5 uM after 12 hrs by Western blot analysis; type: functional, cell-based
MDA-MB-231 [28] = experiment: Antitumor activity against human MDA-MB-231 cells xenografted in SCID mouse assessed inhibition of tumor growth at 100 mg/kg, po administered daily for 5 days/week for 2 weeks; type: functional, organism-based; design: dose 100 mg/kg
Mus musculus [29] = experiment: Induction of procaspase-8 processing in human MDA-MB-231 cells xenografted in SCID mouse at 100 mg/kg, po administered as single dose measured after 2 hrs by Western blot analysis; type: functional, organism-based; design: dose 100 mg/kg
Mus musculus [30] = experiment: Induction of PARP cleavage in human MDA-MB-231 cells xenografted in SCID mouse at 100 mg/kg, po administered as single dose measured after 2 hrs by Western blot analysis; type: functional, organism-based; design: dose 100 mg/kg
MDA-MB-231 [31] = experiment: Antitumor activity against human MDA-MB-231 cells xenografted in SCID mouse assessed inhibition of tumor growth at 30 mg/kg, po administered daily for 5 days/week for 2 weeks; type: functional, organism-based; design: dose 30 mg/kg
Mus musculus [32] = experiment: Induction of procaspase-8 processing in human MDA-MB-231 cells xenografted in SCID mouse at 100 mg/kg, po administered as single dose measured after 6 hrs by Western blot analysis; type: functional, organism-based; design: dose 100 mg/kg
Mus musculus [33] = experiment: Induction of degradation of cIAP1 in human MDA-MB-231 cells xenografted in SCID mouse at 100 mg/kg, po administered as single dose measured after 2 hrs by Western blot analysis; type: functional, organism-based; design: dose 100 mg/kg
MDA-MB-231 [34] = experiment: Antitumor activity against human MDA-MB-231 cells xenografted in SCID mouse assessed inhibition of tumor growth at 7.5 mg/kg, iv administered once/week for 2 weeks
Mus musculus [35] = experiment: Induction of procaspase-8 processing in human MDA-MB-231 cells xenografted in SCID mouse at 7.5 mg/kg, iv administered as single dose measured after 24 hrs by Western blot analysis; type: functional, organism-based; design: dose 7.5 mg/kg
Mus musculus [36] = experiment: Induction of PARP cleavage in human MDA-MB-231 cells xenografted in SCID mouse at 7.5 mg/kg, iv administered as single dose measured after 24 hrs by Western blot analysis; type: functional, organism-based; design: dose 7.5 mg/kg
Mus musculus [37] = experiment: Toxicity in human MDA-MB-231 cells xenografted in SCID mouse assessed weight loss at 7.5 mg/kg, iv administered once/week for 2 weeks; conditions: in vivo, 336 h
Mus musculus [38] = experiment: Induction of degradation of cIAP1 in human MDA-MB-231 cells xenografted in SCID mouse at 7.5 mg/kg, iv administered as single dose measured after 24 hrs by Western blot analysis; type: functional, organism-based; design: dose 7.5 mg/kg

CN[C@@H](C)C(=O)N[C@H]1CN(C(=O)CC(C)C)CC[C@H]2CC[C@@H](C(=O)NC(c3ccccc3)c3ccccc3)N2C1=O.Cl
F (Mus musculus [1]): 38% | t1/2 (Mus musculus [2]): 2.3 h | AUCt (Mus musculus [3]): 3800 ng·h/mL | AUCt (Cynomolgus monkey [4]): 13500 ng·h/mL | AUCt (Mus musculus [5]): 4300 ng·h/mL | AUCt (Rattus norvegicus [6]): 2300 ng·h/mL | AUCt (Canis familiaris [7]): 90300 ng·h/mL | t1/2 (Mus musculus [8]): 3 h | t1/2 (Canis familiaris [9]): 16.3 h | AUCt (Canis familiaris [10]): 81600 ng·h/mL | t1/2 (Rattus norvegicus [11]): 1.8 h | t1/2 (Cynomolgus monkey [12]): 6.3 h | t1/2 (Rattus norvegicus [13]): 1.4 h | F (Canis familiaris [14]): 55% | AUCt (Cynomolgus monkey [15]): 17900 ng·h/mL | t1/2 (Cynomolgus monkey [16]): 5.4 h | F (Rattus norvegicus [17]): 45% | t1/2 (Canis familiaris [18]): 27.1 h | F (Cynomolgus monkey [19]): 42%

CN[C@@H](C)C(=O)N[C@H]1CN(C(=O)CC(C)C)CC[C@H]2CC[C@@H](C(=O)NC(c3ccccc3)c3ccccc3)N2C1=O
Activity (MDA-MB-231 [20]): Dose-dependent effect | Activity (Mus musculus [21]): Active | Activity (Mus musculus [22]): Active | Activity (Mus musculus [23]): Active | Activity (MDA-MB-231 [24]): Active | TGI (MDA-MB-231 [25]): inactive | Activity (MDA-MB-231 [26]): tde | Activity (MDA-MB-231 [27]): Active | TGI (MDA-MB-231 [28]): Active | Activity (Mus musculus [29]): Active | Activity (Mus musculus [30]): Active | TGI (MDA-MB-231 [31]): Active | Activity (Mus musculus [32]): Active | Activity (Mus musculus [33]): Active

CC(=O)O[C@@]12CO[C@@H]1C[C@H](O)[C@@]1(C)C(=O)[C@H](O)C3=C(C)[C@@H](OC(=O)[C@H](O)[C@@H](NC(=O)OC(C)(C)C)c4ccccc4)C[C@@](O)([C@@H](OC(=O)c4ccccc4)[C@H]21)C3(C)C.O.O.O [DOCETAXEL]
TGI (MDA-MB-231 [34]): Active | Activity (Mus musculus [35]): Active | Activity (Mus musculus [36]): inactive | Activity (Mus musculus [37]): Toxic | Activity (Mus musculus [38]): inactive
